Test results as given in patent publication US3940248A, “Method for inhibiting corrosion of metal” (Otsuka Kagaku Yakuhin Kabushiki Kaisha, priority 1972, dated 1976).

Tests used:
[1] = in vivo; conditions: rat, po
Procedure: The LD50 test was conducted using male Wistar rats after 24 hours' fasting weighing 150 g, each 10 rats as a group.

[2] = test system: male Wistar rats; conditions: sodium nitrite, as determined in rats; cited from earlier work

Row | SMILES | LD50 [1] [mg/kg] | LD50 [2] [mg/kg]
1 | Cc1cc(O)c2nncn2n1 | ~3750 | –
2 | O=NO [Sodium nitrite] | – | 85
